Source: publication PMC8157262 (Pharmaceutics, 2021)
Read-outs that look alike come from different tables or passages of the source.

How the values were obtained:
[1] = Pharmacokinetics after intravenous administration of tofacitinib and/or voriconazole to rats; conditions: Sprague-Dawley, rat, 10 mg/kg
Procedure: In all cases, the treatment was administered intravenously for 1 min via the jugular vein (total injection volume of 4 mL/kg). Blood samples (approximately 0.12 mL for single drug administration and 0.22 mL for co-administration of both drugs) were taken from the carotid artery at 0 (before the start of injection), 1 (right after injection), 5, 15, 30, 60, 120, 180, 240, 360, 480, 600 and/or 720 min after the start of injection. […] Urine samples, collected for 24 h following injection, and gastrointestinal tract (including its contents and feces) samples, collected 24 h after injection, were prepared in accordance with previously reported methods.

[2] = Protein binding of tofacitinib to fresh rat plasma (equilibrium dialysis); type: in vitro ADME; conditions: n = 5, read-out: Protein binding (bound fraction) (converted)
Procedure: Briefly, plasma was dialyzed against isotonic phosphate buffer (pH 7.4) in a 1 mL dialysis cell (Spectrum Medical Industries, Los Angeles, CA, USA).

[3] = Sprague-Dawley, rat, in vivo
rat hepatic microsomes = conditions: for Vmax for the elimination of tofacitinib: liver microsomes, n = 3
[4] = tested on: rat intestinal microsomes
[5] = oral, healthy male adults; cited from earlier work
[6] = tested on: Candida albicans-infected mice; conditions: long-term administration to Candida albicans-infected mice; cited from earlier work
in vivo = conditions: Sprague-Dawley, rat; for bioavailability: F
in vitro [7] = conditions: rat, liver microsomes
in vitro [8] = conditions: rat, intestinal microsomes
[9] = cited from earlier work
[10] = tested on: human carbonic anhydrase 1; conditions: interaction with acetazolamide; cited from earlier work
α-glycosidase = conditions: interaction with acarbose; cited from earlier work
[11] = rat hepatic microsomes, 20 μM voriconazole
[12] = rat intestinal microsomes, 20 μM voriconazole
[13] = pH 7.4, with voriconazole 20 μM

In the case of `C[C@@H]1CCN(C(=O)CC#N)C[C@@H]1N(C)c1ncnc2[nH]ccc12` [tofacitinib, Tofacitinib], the AUC ([1]; in vivo) is reported as 12300 ng·h/mL, the CL renal ([1]; in vivo) is reported as 3.61 ± 0.829 mL/min/kg and the AUC ([1]; iv, AUC) is reported as 4630 ng·h/mL. The CL renal ([1]; iv, CLR) was 1.44 ± 0.678 mL/min/kg, the Vd ([1]; iv, Vss) was 1.21 ± 0.489 L/kg and the fraction unbound at 8 h, 5 μg/mL ([2]; pH 7.4, tofacitinib 5 μg/mL in the absence of voriconazole) was 0.621. For the same compound, the fraction unbound at 8 h, 5 μg/mL ([2]; pH 7.4, tofacitinib 5 μg/mL in the presence of voriconazole 5 μg/mL) was 0.639, the F [3] was 72.4% and the “'true' fraction of the oral dose unabsorbed (Funabs)” value ([3]; po) was “approximately 0.162%”. The “Fraction of the oral dose absorbed” value ([3]; po) was “more than 99%”, the CLR ([3]; po, 20 mg/kg) was 0.310 ± 0.117 mL/min/kg and the “Vmax for the elimination of tofacitinib” value (rat hepatic microsomes; with 20 μM VCZ) was 1184 ± 470 pmol/min/mg protein. The “Vmax for the elimination of tofacitinib” value (rat hepatic microsomes; without VCZ) was 2895 ± 319 pmol/min/mg protein, the “CLint of tofacitinib slower in the presence of voriconazole” value (rat hepatic microsomes; [11]) was 65.5% and the “Vmax of tofacitinib elimination slower in the presence of voriconazole” value (rat hepatic microsomes; [11]) was 59.1%. For the same compound, the “Vmax for the elimination of tofacitinib” value ([4]; intestinal microsomes, with 20 μM VCZ, n = 3) was 212 ± 27.0 pmol/min/mg protein, the “Vmax for the elimination of tofacitinib” value ([4]; intestinal microsomes, without VCZ, n = 3) was 380 ± 86.1 pmol/min/mg protein and the “CLint of tofacitinib slower in the presence of voriconazole” value [4, 12] was 21.1%. For the same compound, the “Vmax of tofacitinib elimination slower in the presence of voriconazole” value [4, 12] was 44.2%, the “AUC of tofacitinib higher when co-administered with fluconazole” value [5] was 79% and the “AUC of tofacitinib higher when combined with ketoconazole” value [5] was 103%. The “Survival rate of infected mice” value [6] was “significantly reduce their survival rate”, the bioavailability (in vivo) was 71.2% and the CL renal (in vivo; po, 20 mg/kg, CLR) was 5.36 ± 1.35 mL/min/kg. The Tmax (in vivo; po, 20 mg/kg) was 1.46 h, the Km (in vitro [7]; pH 7.4) was 124 ± 13.7 µM and the microsomal CLint (in vitro [7]; pH 7.4) was 23.3 ± 0.689 µL/min/mg. For the same compound, the Km (in vitro [7]; [13]) was 147 ± 43.4 µM, the microsomal CLint (in vitro [7]; [13]) was 8.05 ± 2.01 µL/min/mg and the Km (in vitro [8]; pH 7.4) was 43.1 ± 11.7 µM. It also gave a microsomal CLint (in vitro [8]; pH 7.4) of 8.94 ± 1 µL/min/mg, a Km (in vitro [8]; [13]) of 30.1 ± 3.29 µM and a microsomal CLint (in vitro [8]; [13]) of 7.05 ± 0.12 µL/min/mg. For the same compound, the Volume of distribution ([9]; tofacitinib oral, healthy subjects) was 1.24 L/kg, the Plasma protein binding ([9]; tofacitinib, healthy subjects) was “approximately 40%” and the “Absolute oral bioavailability (F)” value ([9]; tofacitinib, humans) was “approximately 74%”. The “Fraction processed by CYP2C19” value ([9]; tofacitinib, humans) was 20% and the “Fraction processed by CYP3A4” value ([9]; tofacitinib, humans) was “about 50%”.
With `C[C@@H](c1ncncc1F)[C@](O)(Cn1cncn1)c1ccc(F)cc1F` [voriconazole, Voriconazole] the MRT ([1]; iv) was 6.67 ± 2.48 h, the AUC ([1]; iv, AUC) was 31000 ng·h/mL and the MRT ([1]; iv, MRT) was 7.03 h. For the same compound, the half-life ([1]; iv, Terminal half-life) was 5.23 ± 1.61 h, the F [3] was 122% and the “Manner of inhibition of tofacitinib metabolism by voriconazole” value (rat hepatic microsomes; Lineweaver–Burk and Dixon plots, rat hepatic microsomes) was “non-competitive manner”. The “Manner of inhibition of tofacitinib metabolism by voriconazole” value ([4]; rat intestinal microsomes) was “non-competitive manner”, the Ki ([4]; read-out: Apparent Ki of voriconazole for the inhibition of tofacitinib metabolism, intestinal microsomes, non-competitive model, n = 3) was 26.2 ± 8.05 µM and the “Type of inhibition of human carbonic anhydrase 1” value [10] was “non-competitive inhibition”. The “Type of inhibition of α-glycosidase” value (α-glycosidase) was “non-competitive inhibition”, the bioavailability (in vivo) was 106% and the AUC (in vivo; po, 20 mg/kg, AUC) was 65600 ng·h/mL. For the same compound, the Cmax (in vivo; po, 20 mg/kg, Cmax) was 7820 ± 1130 ng/mL, the Tmax (in vivo; po, 20 mg/kg) was 4.38 h and the F ([9]; human, in vivo) was “over 90%”. For the same compound, the Protein binding ([9]; human, in vivo) was “approximately 58%” and the half-life ([9]; human, in vivo) was “approximately 6 h”.
